In patent US11253592B2, “Water-soluble compounds with aggregation-induced emission characteristics” (THE HONG KONG UNIVERSITY OF SCIENCE AND TECHNOLOGY, priority 2017, dated 2022):

Legend:
HeLa cells [1] = assay: Photostability under continuous laser irradiation in stained cells; assay type: cell-based; conditions: 15 min continuous laser irradiation, λex 488 nm
Method: For photostability studies, TTVP-labelled HeLa cells were imaged by a confocal microscope (Zeiss laser scanning confocal microscope LSM7 DUO) using ZEN 2009 software (Carl Zeiss). Conditions: for TTVP, excitation wavelength: 488 nm; for DiO, excitation wavelength: 488 nm (5% laser power).
The specificity of TTVP to plasma membrane was evaluated by co-staining with DiO, which is a commercially available bioprobe for plasma membrane. In this co-localization experiment, after incubating HeLa cells with DiO for 10 min, TTVP was added into the culture followed by culture shaking for a few seconds at room temperature. In order to accommodate the staining protocol of DiO, postwashing after cell staining was carried out. As shown in FIGS. 9A-9H, TTVP can selectively accumulate in the plasma membrane and emit strong red fluorescence. The well-merged images of TTVP and DiO indicate the high specificity of the compounds to the plasma membrane, and the Pearson's correlation coefficient is determined to be 89%. To assess the photostability of TTVP and DiO, continuous excitation and sequential scanning with confocal microscope were utilized.

[2] = tested on: plasma membrane of living HeLa cells; assay: Plasma membrane cell imaging by confocal microscopy; assay type: cell-based
Method: (§1) For cell imaging, cells were grown in a 35 mm Petri dish with a coverslip at 37° C. The live cells were incubated with a certain dye at a certain concentration for a certain time. After adding TTVP (500 nM), the Petri dish was shaken for a few seconds at room temperature, then the coverslip was removed. The TTVP-labelled cells were mounted and imaged using a laser scanning confocal microscope (LSM7 DUO) at 512 nm with 5% laser power (the scanning rate was 22.4 s per frame). The emission filter was 600-744 nm.
As a water-soluble NIR-emissive AIEgen, TTVP maintains an “off” state in an aqueous environment. As such, TTVP can serve as a “light-up” probe for bioimaging with minimal background interference from both free dyes and bio-substrate autofluorescence. In preliminary bioimaging experiments, cell imaging studies were conducted using HeLa cells as a cell model, and incubating 500 nM of TTVP for 10 min. […] The influence of incubation period was then investigated by utilizing a wash-free procedure with different staining times. […] The plasma membrane-staining ability of TTVP can be mainly attributed to its good hydrophilicity, which impedes the permeation of TTVP passing through the hydrophobic region of phospholipid bilayers. It is believed that the emitting moiety of TTVP is embedded within the hydrophobic region with low polarity, evidently giving fluorescent emission upon irradiation according to the restriction of intramolecular motions (RIM) mechanism of the AIE process (FIG. 6G). […] Additionally, ultrafast staining could result from the excellent monodispersity of TTVP in culture media of cells.

[3] = DLS analysis of nanoaggregates in water/THF; assay type: physicochemical; conditions: suspension with 90% fraction of THF
Method: (§2) Dynamic light scattering analysis (DLS) and transmission electron microscope (TEM) measurements were performed to confirm the formation of aggregates upon the addition of THF into the TTVP aqueous solution. […] In the solid state, TTVP emitted at 705 nm with 2.7% of quantum yield and 0.92 ns of lifetime (FIGS. 4-5, Table 1).

[4] = ROS generation with H2DCF-DA indicator under white light; conditions: 10 μM TTVP, 5 μM H2DCF-DA in PBS, white light 10 mW, within 60 s
Description: The strong absorption of TTVP in the visible light region permits utilization of visible light as the excitation light source for PDT processes. Visible light causes less damage to biological systems than UV light. The ROS generation efficiency of TTVP was initially determined by the use of H2DCF-DA as an indicator, which emits fluorescence with a “turn on” process triggered by ROS. As depicted in FIG. 11A, TTVP or H2DCF-DA alone was non-emissive or weekly emissive, and each fluorescence intensity remained almost constant within 60 s white light irradiation. […] The efficient ROS generation of TTVP could be attributed to both its small singlet-triplet energy gap (0.47 eV) and excellent monodispersity. The former favors the improvement of the yield of the triplet excited state, and the latter can enlarge contact area between TTVP and oxygen.

HeLa cells [5] = assay: Flow cytometry Annexin V-FITC/PI double staining for apoptosis and necrosis; assay type: cell-based; conditions: 500 nM
Method: Effective ROS generation of the present compounds in PDT applications was quantitatively evaluated on HeLa cells by a standard MTT assay. A dose-dependent toxicity was determined in both the absence and presence of white light irradiation. […] In comparison, HeLa cells retained 90% viability when they were incubated with 1 μM of TTVP in dark conditions. Furthermore, flow cytometric analysis using Annexin V-FITC/propidium iodide (PI) double staining was utilized to determine cell apoptosis (FIGS. 11C and 11D). […] It is worth noting that continuous light irradiation with strong power (around 18.5 times higher than that for cell imaging depicted in FIGS. 6A-6H and FIGS. 8A-8H) led to some changes of cells, for instance, TTVP can gradually enter the cells (FIGS. 11E-11I); the cell membrane morphology changed, and the formation of blebs on the plasma membrane was clearly observed, which is a sign of cell death. Those changes can be attributed to the fact that the ROS generated from TTVP considerably disrupts the rigidity and permeability of plasma membrane, and induces cancer cell death. FIGS. 12A, 12B, 12C, 12D, and 12E depict bright-field confocal images of HeLa cell stained with TTVP upon the increase of irradiation time. λex: 488 nm (20% laser power, 0.925 μW).

HeLa cells [6] = assay: MTT cytotoxicity under white light irradiation (PDT); assay type: cell-based; conditions: white light irradiation (around 10 mW) 10 min
Method: For cytotoxicity studies relating to cytotoxicity of the present compounds to cancer cells under light irradiation, HeLa cells were seeded in 96-well plates (Costar, IL, USA) at a density of 6000-8000 cells/well. After overnight culturing, medium in each well were replaced by 100 μL fresh medium containing different concentrations of TTVP. After incubation for 3 s, plates containing HeLa cells were exposed to white light (around 10 mW) for 10 min, and another array of plates with cells were kept in dark as control. Then the plates were subjected to the same treatment as the biocompatibility test.
(§3) Effective ROS generation of the present compounds in PDT applications was quantitatively evaluated on HeLa cells by a standard MTT assay. A dose-dependent toxicity was determined in both the absence and presence of white light irradiation. […] In comparison, HeLa cells retained 90% viability when they were incubated with 1 μM of TTVP in dark conditions. Furthermore, flow cytometric analysis using Annexin V-FITC/propidium iodide (PI) double staining was utilized to determine cell apoptosis (FIGS. 11C and 11D). […]

HeLa cells [7] = assay: MTT cytotoxicity in dark conditions (biocompatibility); assay type: cell-based
Method: For cytotoxicity studies relating to biocompatibility of the present compounds to Hela cells, MTT assays were used to evaluate the cytotoxicity of the presented AIEgens. Cells were seeded in 96-well plates (Costar, IL, USA) at a density of 6000-8000 cells/well. After overnight culturing, medium in each well were replaced by 100 μL fresh medium containing different concentrations of TTVP. 24 hours later, 10 μL MTT solution (5 mg/mL in PBS) was added into each well. After 4 hours of incubation, 100 μL SDS-HCl aqueous solution (10% SDS and 0.01 M HCl) was added to each well. After incubation for 4 hours, the absorption of each well at 595 nm was recorded via a plate reader (Perkin-Elmer Victor3™). Each trial was performed with 6 wells parallel.
as §3

[8] = Photophysical (optical) properties of TTVP; assay type: physicochemical
Method: H spectra were measured on Bruker ARX 400 NMR spectrometers using CD3OD as the deuterated solvent. High-resolution mass spectra (HRMS) were recorded on a Finnegan MAT TSQ 7000 Mass Spectrometer System operating in a MALDI-TOF mode. UV absorption spectra were taken on a Milton Ray Spectronic 3000 array spectrophotometer. Steady-state fluorescence spectra were recorded on a Perkin Elmer LS 55 spectrometer. Fluorescence images were collected on Olympus BX 41 fluorescence microscope. Laser confocal scanning microscope images were collected on Zeiss laser scanning confocal microscope (LSM7 DUO) and analyzed using ZEN 2009 software (Carl Zeiss).
(§4) TTVP benefits from its positively charged amine and pyridinium salt having hydrophilic characteristic, as well as the small size of the hydrophobic moiety. […] The relatively long absorption wavelength can be attributed to its small HOMO-LOMO energy gap, which is caused by the strong electron donating-accepting interaction of the emitting center (FIGS. 3A-3C).
as §2

293T cells = assay: Ultrafast wash-free plasma membrane imaging; assay type: cell-based; conditions: 500 nM, around 3 s
Method: as §1
(§5) Encouraged by the distinct advantages of TTVP for membrane-specific imaging, this ultrafast staining and wash-free cellular imaging protocol was further employed for staining other cell lines, including 293T, HCC827, HCT116, and MDCK2.

HCT116 cells = assay: Ultrafast wash-free plasma membrane imaging; assay type: cell-based; conditions: 500 nM, around 3 s
Method: as §1, §5

HCC827 cells = assay: Ultrafast wash-free plasma membrane imaging; assay type: cell-based; conditions: 500 nM, around 3 s
Method: as §1, §5

MDCK2 cells = assay: Ultrafast wash-free plasma membrane imaging; assay type: cell-based; conditions: 500 nM, around 3 s
Method: as §1, §5

Water solubility = assay type: physicochemical
Description: as §4

In the case of `CCCCCCCCCCCCCCCCCCN1/C(=C\C=C\c2oc3ccccc3[n+]2CCCCCCCCCCCCCCCCCC)Oc2ccccc21.[O-][Cl+3]([O-])([O-])[O-]` [DiO, reference compound], the “change of emission intensity on irradiation (photostability)” value (HeLa cells [1]) was “fluorescence loss of DiO was very obvious”.

For `C[N+](C)(C)CCC[n+]1ccc(/C=C/c2ccc(-c3ccc(N(c4ccccc4)c4ccccc4)cc3)s2)cc1` [TTVP], the plasma membrane visualization ([2]; 500 nM, 10 min incubation, with or without washing) was “clearly visualized with excellent image contrast”, the plasma membrane staining ([2]; 500 nM, shaking a few seconds at room temperature, wash-free) was “lit up significantly” and the “cellular localization after long staining” value ([2]; 500 nM, staining for 6 hours) was “A majority of TTVP entered the cells”. For the same molecule, the plasma membrane visualization ([2]; 500 nM, staining time 4 h) was “still be clearly visualized”, the “maximum emission of stained living cells” value ([2]; living HeLa cells stained with TTVP) was 623 nm and the “average hydrodynamic diameter of nanoaggregates” value [3] was “around 43 nm”. The polydispersity index [3] was 0.13, the “enhancement of H2DCF-DA emission intensity (ROS generation)” value [4] was 87 fold and the “cell necrosis on light irradiation” value (HeLa cells [5]) was “caused cancer cell necrosis in a short period of time”. For the same molecule, the cell death (HeLa cells [6]; 1 μM) was “almost complete cell death”, the viability at 0.5 µM (HeLa cells [6]; Homo sapiens, HeLa, light or radiation study, 10 min, 500 nM, read-out: cell viability) was 15% and the “change of emission intensity on irradiation (photostability)” value (HeLa cells [1]) was “slightly decreased”. The “cytotoxicity in dark conditions” value (HeLa cells [7]) was “low cytotoxicity”, the cell viability (HeLa cells [7]; 1 μM) was 90% and the “λem (nm) Aggr, maximum emission in aggregated state” value ([8]; aggregated state, water/THF mixture) was 708 nm. For the same molecule, the “ε, molar extinction coefficient” value ([8]; aqueous solution, at 515 nm) was 33517 M⁻¹ cm⁻¹, the “λabs (nm), absorption maximum” value ([8]; aqueous solutions) was 515 nm and the “λem (nm) Solid, emission maximum in solid state” value ([8]; solid state) was 705 nm. The “τ, fluorescence lifetime” value ([8]; solid state, ambient conditions) was 0.92 ns, the “ΦF, fluorescence quantum yield” value ([8]; solid state, calibrated integrating sphere) was 2.7% and the plasma membrane visualization (293T cells) was “clearly visualized”. For the same molecule, the plasma membrane visualization (HCT116 cells) was “clearly visualized”, the plasma membrane visualization (HCC827 cells) was “clearly visualized” and the plasma membrane visualization (MDCK2 cells) was “clearly visualized”. The water solubility (Water solubility) was “good water solubility”.
